Measured values reported in ChEMBL document CHEMBL2029212, “Discovery of 1,4-disubstituted 3-cyano-2-pyridones: a new class of positive allosteric modulators of the metabotropic glutamate 2 receptor” (J Med Chem, 2012).

Experiments:
[1] = target: T1, Metabotropic glutamate receptor 2 (Homo sapiens, UniProt Q14416); assay: Positive allosteric modulation of human mGlu2 receptor expressed in CHO cells assessed as glutamate-induced [35S]GTPgammaS binding after 30 mins by liquid scintillation counting relative to glutamate; format: functional, cell-based
Target sequence in this assay (Q14416 19-872 limits assumed): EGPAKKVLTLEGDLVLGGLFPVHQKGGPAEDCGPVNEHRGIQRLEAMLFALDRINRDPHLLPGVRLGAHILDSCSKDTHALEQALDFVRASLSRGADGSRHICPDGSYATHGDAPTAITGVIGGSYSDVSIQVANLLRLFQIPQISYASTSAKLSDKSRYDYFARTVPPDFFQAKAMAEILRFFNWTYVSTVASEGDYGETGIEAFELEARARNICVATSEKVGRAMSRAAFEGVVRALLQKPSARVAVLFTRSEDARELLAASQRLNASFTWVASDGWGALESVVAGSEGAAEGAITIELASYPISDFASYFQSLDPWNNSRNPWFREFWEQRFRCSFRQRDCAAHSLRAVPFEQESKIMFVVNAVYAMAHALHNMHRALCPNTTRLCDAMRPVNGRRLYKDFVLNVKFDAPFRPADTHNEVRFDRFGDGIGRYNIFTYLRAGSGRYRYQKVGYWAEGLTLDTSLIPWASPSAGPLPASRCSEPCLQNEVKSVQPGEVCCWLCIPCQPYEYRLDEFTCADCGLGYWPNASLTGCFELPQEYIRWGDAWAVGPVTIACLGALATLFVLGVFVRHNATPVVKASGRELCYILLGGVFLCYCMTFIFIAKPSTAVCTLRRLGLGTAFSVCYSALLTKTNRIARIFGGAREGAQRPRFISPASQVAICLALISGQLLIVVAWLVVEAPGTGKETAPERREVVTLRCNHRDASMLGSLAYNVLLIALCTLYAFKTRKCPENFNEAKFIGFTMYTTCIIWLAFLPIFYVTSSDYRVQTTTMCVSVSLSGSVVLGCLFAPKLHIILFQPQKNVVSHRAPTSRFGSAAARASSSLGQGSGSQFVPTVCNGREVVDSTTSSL

[2] = Drug metabolism in human liver microsomes at 5 uM after 15 mins; format: ADME, Microsome; conditions: read-out: Drug metabolism
[3] = Drug metabolism in rat liver microsomes at 5 uM after 15 mins; format: ADME, Microsome; conditions: read-out: Drug metabolism
[4] = target: hERG (Homo sapiens, UniProt Q12809); assay: Inhibition of human ERG expressed in HEK293 cells assessed as whole cell current at 3 uM after 5 mins by automated patch-clamp assay relative to control; format: cell-based; conditions: HEK293 cells expressing hERG
[5] = Drug level in Swiss mouse brain at 10 mg/kg, sc after 0.5 hrs; format: ADME, organism-based; set-up: dose 10 mg/kg, route subcutaneous; conditions: read-out: Drug uptake
[6] = Drug level in Swiss mouse brain at 10 mg/kg, sc after 1 hr; format: ADME, organism-based; set-up: dose 10 mg/kg, route subcutaneous; conditions: read-out: Drug uptake
[7] = Drug level in Swiss mouse brain at 10 mg/kg, sc after 1.5 hrs; format: ADME, organism-based; set-up: dose 10 mg/kg, route subcutaneous; conditions: read-out: Drug uptake
[8] = Ratio of drug level in brain to plasma in Swiss mouse at 10 mg/kg, sc after 1 hr; format: ADME, organism-based; set-up: dose 10 mg/kg, route subcutaneous; conditions: read-out: BPR
[9] = test system: Brain; assay: Ratio of drug level in Swiss mouse brain at 10 mg/kg, sc after 1.5 hrs to drug level in Swiss mouse brain at 10 mg/kg, sc after 1 hr; format: ADME, organism-based; conditions: in vivo
[10] = target: T1, Metabotropic glutamate receptor 2; assay: Positive allosteric modulation of human mGlu2 receptor expressed in CHO cells assessed as glutamate-induced [35S]GTPgammaS binding after 30 mins by liquid scintillation counting; format: functional, cell-based
Target sequence in this assay (Q14416 whole entry): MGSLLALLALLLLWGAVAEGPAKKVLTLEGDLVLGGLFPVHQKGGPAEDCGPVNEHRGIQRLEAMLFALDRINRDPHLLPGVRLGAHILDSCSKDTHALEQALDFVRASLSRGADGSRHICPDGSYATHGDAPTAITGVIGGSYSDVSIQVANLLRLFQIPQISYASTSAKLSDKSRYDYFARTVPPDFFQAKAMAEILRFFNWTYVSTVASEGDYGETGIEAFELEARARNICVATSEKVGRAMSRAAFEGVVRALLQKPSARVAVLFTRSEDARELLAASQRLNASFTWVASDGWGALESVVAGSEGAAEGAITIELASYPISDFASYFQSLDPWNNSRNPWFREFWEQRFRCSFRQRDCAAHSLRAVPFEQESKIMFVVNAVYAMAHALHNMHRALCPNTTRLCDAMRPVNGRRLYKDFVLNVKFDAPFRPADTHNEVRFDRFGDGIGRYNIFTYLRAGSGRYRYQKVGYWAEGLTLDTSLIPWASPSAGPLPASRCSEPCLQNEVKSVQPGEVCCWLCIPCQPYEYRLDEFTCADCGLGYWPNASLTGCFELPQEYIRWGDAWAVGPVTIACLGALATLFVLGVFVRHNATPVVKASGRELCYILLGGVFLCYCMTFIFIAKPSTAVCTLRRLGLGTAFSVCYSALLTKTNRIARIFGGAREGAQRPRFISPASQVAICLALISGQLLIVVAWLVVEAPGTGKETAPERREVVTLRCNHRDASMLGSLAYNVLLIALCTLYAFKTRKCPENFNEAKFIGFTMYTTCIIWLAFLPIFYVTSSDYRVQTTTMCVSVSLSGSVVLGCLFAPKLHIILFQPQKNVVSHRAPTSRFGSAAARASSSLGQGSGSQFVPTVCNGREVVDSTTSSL

[11] = Aqueous solubility of the compound in 20% HP-beta-CD buffer at pH 4 to 7.4; format: physicochemical
[12] = target: T2, CYP3A4 (Homo sapiens, UniProt P08684); assay: Inhibition of CYP3A4 at 5 uM; format: ADME
[13] = Aqueous solubility of the compound in 20% HP-beta-CD buffer at pH 4; format: physicochemical
[14] = target: T2, CYP3A4; assay: Inhibition of CYP3A4 at 1 uM; format: ADME
[15] = target: T3, CYP2C9 (Homo sapiens, UniProt P11712); assay: Inhibition of CYP2C9 at 1 uM; format: ADME
[16] = target: T4, CYP2D6 (Homo sapiens, UniProt P10635); assay: Inhibition of CYP2D6 at 1 uM; format: ADME
[17] = target: T5, CYP1A2 (Homo sapiens, UniProt P05177); assay: Inhibition of CYP1A2 at 1 uM; format: ADME
T5 sequence (P05177 whole entry): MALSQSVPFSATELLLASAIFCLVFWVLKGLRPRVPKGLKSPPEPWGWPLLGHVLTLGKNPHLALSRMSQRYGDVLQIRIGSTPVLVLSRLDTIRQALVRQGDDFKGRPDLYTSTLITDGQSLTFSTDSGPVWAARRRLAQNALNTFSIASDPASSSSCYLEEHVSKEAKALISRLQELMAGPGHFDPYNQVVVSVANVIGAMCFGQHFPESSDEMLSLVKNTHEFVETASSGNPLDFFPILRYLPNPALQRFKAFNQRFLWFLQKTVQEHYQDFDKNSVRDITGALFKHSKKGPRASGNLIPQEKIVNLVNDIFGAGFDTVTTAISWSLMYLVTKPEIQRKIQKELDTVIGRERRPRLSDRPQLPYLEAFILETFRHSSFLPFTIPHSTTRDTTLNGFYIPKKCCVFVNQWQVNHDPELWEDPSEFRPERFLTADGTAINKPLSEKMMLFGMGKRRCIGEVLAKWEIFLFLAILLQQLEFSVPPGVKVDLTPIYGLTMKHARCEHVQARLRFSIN

[18] = target: T6, CYP2C19 (Homo sapiens, UniProt P33261); assay: Inhibition of CYP2C19 at 1 uM; format: ADME
[19] = target: T3, CYP2C9; assay: Inhibition of CYP2C9 at 5 uM; format: ADME
[20] = target: T4, CYP2D6; assay: Inhibition of CYP2D6 at 5 uM; format: ADME
[21] = target: T5, CYP1A2; assay: Inhibition of CYP1A2 at 5 uM; format: ADME
[22] = target: T6, CYP2C19; assay: Inhibition of CYP2C19 at 5 uM; format: ADME

Sequence of hERG (Q12809 whole entry): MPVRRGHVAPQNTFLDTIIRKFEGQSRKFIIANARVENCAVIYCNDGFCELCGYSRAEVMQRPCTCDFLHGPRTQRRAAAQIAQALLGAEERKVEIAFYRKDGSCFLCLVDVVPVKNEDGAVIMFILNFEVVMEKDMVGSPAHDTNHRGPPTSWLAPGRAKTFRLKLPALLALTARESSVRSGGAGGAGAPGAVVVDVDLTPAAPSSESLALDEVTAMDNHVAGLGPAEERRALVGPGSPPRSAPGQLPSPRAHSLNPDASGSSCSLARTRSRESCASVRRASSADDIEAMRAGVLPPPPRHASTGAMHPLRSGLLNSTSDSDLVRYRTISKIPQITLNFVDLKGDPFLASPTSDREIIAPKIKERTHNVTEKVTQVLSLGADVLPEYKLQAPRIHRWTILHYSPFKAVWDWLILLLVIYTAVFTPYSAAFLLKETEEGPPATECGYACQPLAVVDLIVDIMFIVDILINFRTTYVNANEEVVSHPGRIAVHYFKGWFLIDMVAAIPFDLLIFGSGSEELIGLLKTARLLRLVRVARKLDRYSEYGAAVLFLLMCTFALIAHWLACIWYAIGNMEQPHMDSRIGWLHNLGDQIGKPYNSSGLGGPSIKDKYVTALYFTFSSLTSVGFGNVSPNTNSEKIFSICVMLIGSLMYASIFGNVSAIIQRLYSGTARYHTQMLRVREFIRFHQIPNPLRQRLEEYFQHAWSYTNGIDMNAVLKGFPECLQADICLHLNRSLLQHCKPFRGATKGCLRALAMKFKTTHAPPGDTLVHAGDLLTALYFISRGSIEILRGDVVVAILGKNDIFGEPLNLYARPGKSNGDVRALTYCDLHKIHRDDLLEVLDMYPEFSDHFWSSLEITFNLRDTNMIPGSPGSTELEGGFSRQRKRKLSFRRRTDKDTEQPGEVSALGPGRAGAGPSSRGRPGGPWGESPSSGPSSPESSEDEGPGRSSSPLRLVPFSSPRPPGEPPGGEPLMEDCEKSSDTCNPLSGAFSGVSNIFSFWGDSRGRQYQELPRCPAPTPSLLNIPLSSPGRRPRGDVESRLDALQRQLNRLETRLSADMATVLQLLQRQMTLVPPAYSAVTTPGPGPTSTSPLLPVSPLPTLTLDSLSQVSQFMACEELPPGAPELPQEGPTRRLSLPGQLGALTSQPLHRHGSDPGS
T4 sequence (P10635 whole entry): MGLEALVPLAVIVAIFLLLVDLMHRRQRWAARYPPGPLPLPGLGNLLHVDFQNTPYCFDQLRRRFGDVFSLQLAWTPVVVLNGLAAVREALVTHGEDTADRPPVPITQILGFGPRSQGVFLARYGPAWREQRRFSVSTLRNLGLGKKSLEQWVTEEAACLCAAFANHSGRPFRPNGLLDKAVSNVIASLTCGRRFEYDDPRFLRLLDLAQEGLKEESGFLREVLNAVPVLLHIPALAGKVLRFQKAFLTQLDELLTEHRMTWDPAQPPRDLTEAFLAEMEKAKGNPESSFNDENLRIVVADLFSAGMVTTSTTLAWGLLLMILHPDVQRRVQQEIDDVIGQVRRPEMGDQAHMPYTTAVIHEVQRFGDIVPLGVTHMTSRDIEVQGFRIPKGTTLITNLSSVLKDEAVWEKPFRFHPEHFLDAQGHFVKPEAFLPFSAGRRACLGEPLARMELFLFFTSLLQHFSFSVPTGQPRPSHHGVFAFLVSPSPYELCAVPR
T6 sequence (P33261 whole entry): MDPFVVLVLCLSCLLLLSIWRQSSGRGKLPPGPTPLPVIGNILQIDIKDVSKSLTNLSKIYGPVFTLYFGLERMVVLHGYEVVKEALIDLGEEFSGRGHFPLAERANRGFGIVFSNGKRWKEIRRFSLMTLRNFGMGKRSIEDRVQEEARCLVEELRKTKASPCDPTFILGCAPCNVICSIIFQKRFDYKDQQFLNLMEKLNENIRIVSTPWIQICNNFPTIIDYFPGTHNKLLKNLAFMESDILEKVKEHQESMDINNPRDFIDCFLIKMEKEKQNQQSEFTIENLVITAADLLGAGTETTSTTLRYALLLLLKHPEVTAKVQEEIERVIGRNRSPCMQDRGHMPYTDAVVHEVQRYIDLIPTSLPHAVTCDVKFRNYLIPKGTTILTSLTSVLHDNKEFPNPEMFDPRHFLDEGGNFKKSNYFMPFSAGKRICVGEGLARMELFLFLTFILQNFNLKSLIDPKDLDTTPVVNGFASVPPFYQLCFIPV
T3 sequence (P11712 whole entry): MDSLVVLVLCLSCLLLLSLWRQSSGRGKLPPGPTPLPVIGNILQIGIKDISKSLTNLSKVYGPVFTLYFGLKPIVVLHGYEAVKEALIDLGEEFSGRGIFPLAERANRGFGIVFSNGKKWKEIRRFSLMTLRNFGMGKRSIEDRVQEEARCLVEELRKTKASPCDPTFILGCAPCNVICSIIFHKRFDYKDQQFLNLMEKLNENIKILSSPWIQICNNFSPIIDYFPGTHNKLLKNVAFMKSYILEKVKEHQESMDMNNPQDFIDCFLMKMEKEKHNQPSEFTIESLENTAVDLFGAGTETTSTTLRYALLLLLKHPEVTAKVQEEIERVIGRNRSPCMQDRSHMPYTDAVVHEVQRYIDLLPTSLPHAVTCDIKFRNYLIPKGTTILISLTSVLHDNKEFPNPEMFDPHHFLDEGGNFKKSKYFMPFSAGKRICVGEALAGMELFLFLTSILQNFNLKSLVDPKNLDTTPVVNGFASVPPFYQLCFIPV
T2 sequence (P08684 whole entry): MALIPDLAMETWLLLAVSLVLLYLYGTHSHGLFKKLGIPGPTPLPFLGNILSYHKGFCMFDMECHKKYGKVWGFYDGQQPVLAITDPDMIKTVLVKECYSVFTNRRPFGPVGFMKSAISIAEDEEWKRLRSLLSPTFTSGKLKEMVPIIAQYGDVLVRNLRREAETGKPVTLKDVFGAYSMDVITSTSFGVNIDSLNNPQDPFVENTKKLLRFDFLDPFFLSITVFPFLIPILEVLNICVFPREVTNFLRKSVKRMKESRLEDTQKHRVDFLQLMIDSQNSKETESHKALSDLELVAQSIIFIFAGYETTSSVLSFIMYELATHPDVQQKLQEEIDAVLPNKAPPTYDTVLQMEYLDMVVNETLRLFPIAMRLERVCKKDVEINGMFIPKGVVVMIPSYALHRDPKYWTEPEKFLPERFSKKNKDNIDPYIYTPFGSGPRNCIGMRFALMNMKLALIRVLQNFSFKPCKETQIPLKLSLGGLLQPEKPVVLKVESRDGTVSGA

`CCCCn1ccc(-c2ccc(Oc3ccnc(C)c3)cc2)c(C#N)c1=O` showed an Emax [1] of 243%, a metabolised at 0.25 h, 5 µM [2] of 31% and a metabolised at 0.25 h, 5 µM [3] of 44%. For the same molecule, the inhibition at 5 min, 3 µM [4] was 53%, the concentration at 0.5 h [5] was 1160 ng/g and the concentration at 1 h [6] was 994 ng/g. It also gave a concentration at 1.5 h [7] of 592 ng/g, a Kp at 1 h [8] of 0.5 and a Ratio [9] of 2.
For `CC(C)CCn1ccc(-c2ccc(Oc3ccccc3)cc2)c(C#N)c1=O`, the EC50 [10] was 42 nM, the Emax [1] was 188% and the metabolised at 0.25 h, 5 µM [2] was 36%. For the same molecule, the metabolised at 0.25 h, 5 µM [3] was 32%, the solubility [11] was greater than 1 µg/mL and the inhibition at 5 µM [12] was less than 50%.
`CC(C)CCn1ccc(-c2ccc(Oc3ccncc3)cc2)c(C#N)c1=O` gave an EC50 [10] of 550 nM, an Emax [1] of 245% and a metabolised at 0.25 h, 5 µM [2] of 27%. It also gave a metabolised at 0.25 h, 5 µM [3] of 41%, a solubility [13] of no less than 4000 µg/mL and an inhibition at 1 µM [14] of 70%. It also gave an inhibition at 1 µM [15] of 82%, an inhibition at 1 µM [16] of 84% and an inhibition at 1 µM [17] of 80%. It also gave an inhibition at 1 µM [18] of 97% and an inhibition at 5 min, 3 µM [4] of 52%.
For `Cc1cc(Oc2ccc(-c3ccn(CCC(C)C)c(=O)c3C#N)cc2)ccn1`, the EC50 [10] was 447 nM, the Emax [1] was 266% and the metabolised at 0.25 h, 5 µM [2] was 61%. The metabolised at 0.25 h, 5 µM [3] was 47%, the inhibition at 5 µM [19] was less than 50% and the inhibition at 5 µM [20] was less than 50%. It also gave an inhibition at 5 µM [21] of less than 50% and an inhibition at 5 µM [22] of less than 50%.
